Measured values: ChEMBL document CHEMBL1201862, “PubChem BioAssay data set” (2004)
The source made the active and inactive calls.

Columns and labels:
[1] = target: Lysosomal acid glucosylceramidase (Homo sapiens, UniProt P04062); assay: Dose response cell-based high throughput screening assay to identify enhancers of beta-glucosidase activity. [Related pubchem assays: 784 ]; format: functional
[2] = target: T1, Eukaryotic translation initiation factor 2-alpha kinase 3 (Homo sapiens, UniProt Q9NZJ5); assay: Dose response cell-based high-throughput screening assay to measure PERK inhibition. [Related pubchem assays: 1416 ]; format: functional
[3] = target: T1, Eukaryotic translation initiation factor 2-alpha kinase 3; assay: Counterscreen assay for PERK inhibitors: Dose response cell-based high throughput screening assay to measure inhibition of PERK at 6 hours. [Related pubchem assays: 1522, 1416 ]; format: functional
[4] = growth suppression of beta-catenin-knockout colon cells, dose response, cell-based, HCT116, human colon tumor (AID 1045); format: functional;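 note: HCT116 colon tumor cells with beta catenin knocked out; cells exposed to compound for 60 hours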
[5] = target: T2, Neuropeptide Y receptor type 1 (Homo sapiens, UniProt P25929); format: functional;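 note: HEK293 cells with a CNG channel challenged with NPY then isoproterenol; potency as antagonist that reverses NPY suppression of cAMP signal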
T2 sequence (P25929 whole entry): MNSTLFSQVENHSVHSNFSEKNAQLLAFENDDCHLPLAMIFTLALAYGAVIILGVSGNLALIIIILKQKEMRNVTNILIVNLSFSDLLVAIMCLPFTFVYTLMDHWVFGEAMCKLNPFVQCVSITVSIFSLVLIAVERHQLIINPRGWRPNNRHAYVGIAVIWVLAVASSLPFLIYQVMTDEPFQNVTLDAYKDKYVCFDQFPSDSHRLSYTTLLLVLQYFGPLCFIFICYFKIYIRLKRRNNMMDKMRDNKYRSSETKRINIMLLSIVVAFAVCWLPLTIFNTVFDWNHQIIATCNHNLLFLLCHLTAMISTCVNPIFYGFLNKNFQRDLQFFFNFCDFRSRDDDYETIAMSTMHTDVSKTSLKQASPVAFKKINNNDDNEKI

[6] = target: T3, Neuropeptide Y receptor type 2 (Homo sapiens, UniProt P49146); format: functional, cell-based;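 note: HEK293 cells expressing the receptor and a CNG channel; stimulus was NPY near EC95 followed by isoproterenol to raise cAMP; antagonist potency measured as restoring cAMP signal that NPY suppresses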
T3 sequence (P49146 whole entry): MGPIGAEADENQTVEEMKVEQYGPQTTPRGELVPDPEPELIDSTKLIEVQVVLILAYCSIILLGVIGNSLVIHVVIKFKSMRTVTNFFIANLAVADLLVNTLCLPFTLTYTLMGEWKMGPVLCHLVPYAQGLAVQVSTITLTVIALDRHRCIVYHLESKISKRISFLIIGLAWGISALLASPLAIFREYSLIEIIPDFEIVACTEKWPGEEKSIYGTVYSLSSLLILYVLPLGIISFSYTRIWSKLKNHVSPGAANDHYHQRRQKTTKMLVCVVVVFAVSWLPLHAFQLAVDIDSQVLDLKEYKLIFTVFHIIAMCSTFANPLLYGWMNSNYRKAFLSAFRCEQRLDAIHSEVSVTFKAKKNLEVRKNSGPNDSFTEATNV

[7] = growth suppression of PTEN-null colon cells, dose response, cell-based, HCT116 PTEN knockout (AID 1047); format: functional;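 note: HCT116 colon tumor cells with PTEN knocked out; cells exposed to compound for 60 hours before readout; potency for loss of cell viability measured by luminescence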
[8] = target: Sphingosine 1-phosphate receptor 3 (Homo sapiens, UniProt Q99500); assay: Dose response cell-based high throughput screening assay for antagonists of the Sphingosine 1-Phosphate Receptor 3 (S1P3). [Related pubchem assays: 1429, 485 ]; format: functional
[9] = inhibitors of intracellular T. cruzi replication, confirmation, NIH3T3 host cells, beta-gal luminescence (AID 2044); format: functional, cell-based;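 note: intracellular parasites grown in NIH/3T3 mouse fibroblasts as host cells; luminescent beta-galactosidase reporter signal from transgenic T. cruzi replicating inside host cells; inhibitors lower the luminescence signal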
[10] = cytotoxicity toward NIH3T3 fibroblasts, dose response, counter-screen, cell-based, ATP luminescence, mouse fibroblasts (AID 2010); format: functional;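 note: cells exposed to compound for about 90 hours before reading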
[11] = target: 5-hydroxytryptamine receptor 1E (Homo sapiens, UniProt P28566); assay: Counterscreen assay for S1P3 antagonists: Dose response cell-based high throughput screening assay to identify antagonists of the 5-Hydroxytryptamine Receptor Subtype 1E (5HT1E). [Related pubchem assays: 1429, 485 ]; format: functional
[12] = HEp-2 cell cytotoxicity, dose response, cytotoxicity control for RSV inhibitor project, HTS (AID 2410); format: functional; details: human respiratory syncytial virus
[13] = target: Peroxisome proliferator-activated receptor gamma/Nuclear receptor corepressor 2 (Homo sapiens, UniProt P37231+Q9Y618); format: functional
[14] = target: Photoreceptor-specific nuclear receptor (Homo sapiens, UniProt Q9Y5X4); format: functional;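 note: potency for compounds that break the NR2E3 corepressor complex and count as activators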
[15] = target: T4, Heat shock 70 kDa protein 1A (Homo sapiens, UniProt P0DMV8); assay: Hsp70 inhibitors, probe displacement, primary screen, biochemical, fluorescence polarization (AID 583)
[16] = target: T4, Heat shock 70 kDa protein 1A; assay: Hsp70 inhibitors, biochemical, TR-FRET (AID 786)
[17] = off-target signal loss in HeLa-CEM21 co-culture – HeLa F-luc CTL cells, cherry-picked, counter-screen for HIV-1 Env fusion inhibitor project, dose response (AID 652040); format: functional, cell-based;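 note: potency for signal decrease marking cytotoxic or nonspecific inhibition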
[18] = HepG2 cell cytotoxicity, dose response, cytotoxicity control, plate reader, cherry-pick, antagonist series (AID 743416); format: functional, cell-based
[19] = inhibitors of clade B AD8 Env fusion, dose response, cell-based, cherry-pick (AID 652062); format: functional;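 note: luciferase signal from cell-cell fusion driven by HIV-1 clade B AD8 Env; potency is for inhibitors of fusion seen as a drop in luminescence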
[20] = MC4R antagonists, dose response, counter-screen for LGR2 antagonist project, cell-based, plate reader, cherry pick (AID 743444); format: functional;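 note: transfected HEK 293 cells stimulated with alpha-MSH peptide; potency of inhibitors of the alpha-MSH evoked signal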
[21] = LGR2 antagonists, dose response, cell-based, HEK293, CRE-luciferase reporter, cherry pick, set 2 (AID 743343); format: functional;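 note: transfected cells were stimulated with diluted bursicon conditioned medium after compound addition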
[22] = reduction of Shn3 3'UTR firefly luciferase signal, dose response, Schnurri-3 inhibitor project, cell-based, Clone20 osteoblasts, cherry-pick, set 2 (AID 720490); format: functional;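 note: actives lower the luminescence signal as inhibitors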
[23] = inhibitors of HIV Env-driven cell fusion, dose response, cherry-pick (AID 652057); format: functional, cell-based
[24] = Luminescence-based counterscreen assay for KLF5 inhibitors: dose response cell-based high throughput screening assay to identify cytotoxic compounds using the IEC-6 intestinal epithelial cell line. [Related pubchem assays: 1700 (Primary screen.), 1834 (Confirmation screen.), 1858 (Summary AID.), 1905 (Counterscreen.)]; format: functional
[25] = cytotoxicity in HEK-293T cells, dose response, cytotoxicity control for TCR NF-kB inhibitor project, luminescence, T-cell screen hits (AID 489026); format: functional, cell-based;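 note: cells exposed to compound about 14 hours before the viability readout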
[26] = Shn3 3'UTR reporter inhibitors, dose response, cell-based, Clone20 osteoblasts, firefly luciferase, cherry-picked (AID 624132); format: functional;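 note: firefly luciferase luminescence from reporter carrying the Shn3 3'UTR in osteoblasts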

T1 sequence (Q9NZJ5 whole entry): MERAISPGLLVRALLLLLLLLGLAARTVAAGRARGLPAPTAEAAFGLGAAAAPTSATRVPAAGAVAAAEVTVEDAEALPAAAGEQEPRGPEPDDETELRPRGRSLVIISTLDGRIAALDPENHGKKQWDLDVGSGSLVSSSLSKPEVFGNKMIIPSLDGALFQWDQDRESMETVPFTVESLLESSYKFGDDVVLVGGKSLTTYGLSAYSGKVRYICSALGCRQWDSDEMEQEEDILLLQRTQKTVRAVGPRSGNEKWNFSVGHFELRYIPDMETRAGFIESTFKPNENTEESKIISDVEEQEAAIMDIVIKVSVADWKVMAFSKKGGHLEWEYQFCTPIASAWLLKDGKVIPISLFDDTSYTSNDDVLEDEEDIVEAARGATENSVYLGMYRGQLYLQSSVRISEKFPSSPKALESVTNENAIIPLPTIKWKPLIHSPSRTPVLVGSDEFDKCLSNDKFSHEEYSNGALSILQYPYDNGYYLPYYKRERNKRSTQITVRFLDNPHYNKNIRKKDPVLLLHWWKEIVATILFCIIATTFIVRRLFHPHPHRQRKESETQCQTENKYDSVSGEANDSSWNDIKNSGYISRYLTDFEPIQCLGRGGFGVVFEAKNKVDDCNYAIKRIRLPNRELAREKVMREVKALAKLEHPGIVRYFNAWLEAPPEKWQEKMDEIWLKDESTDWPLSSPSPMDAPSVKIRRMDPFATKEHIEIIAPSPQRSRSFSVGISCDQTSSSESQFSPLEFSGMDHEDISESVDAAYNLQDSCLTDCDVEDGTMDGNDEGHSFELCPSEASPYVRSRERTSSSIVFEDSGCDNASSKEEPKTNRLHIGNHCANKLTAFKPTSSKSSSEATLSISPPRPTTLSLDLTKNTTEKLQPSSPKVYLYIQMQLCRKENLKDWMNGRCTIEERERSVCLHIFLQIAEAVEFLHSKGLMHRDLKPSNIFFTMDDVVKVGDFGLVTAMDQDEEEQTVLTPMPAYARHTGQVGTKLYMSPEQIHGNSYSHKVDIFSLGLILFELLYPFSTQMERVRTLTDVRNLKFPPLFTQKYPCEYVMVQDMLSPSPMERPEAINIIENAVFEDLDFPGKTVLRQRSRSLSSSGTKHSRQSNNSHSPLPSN
T4 sequence (P0DMV8 whole entry): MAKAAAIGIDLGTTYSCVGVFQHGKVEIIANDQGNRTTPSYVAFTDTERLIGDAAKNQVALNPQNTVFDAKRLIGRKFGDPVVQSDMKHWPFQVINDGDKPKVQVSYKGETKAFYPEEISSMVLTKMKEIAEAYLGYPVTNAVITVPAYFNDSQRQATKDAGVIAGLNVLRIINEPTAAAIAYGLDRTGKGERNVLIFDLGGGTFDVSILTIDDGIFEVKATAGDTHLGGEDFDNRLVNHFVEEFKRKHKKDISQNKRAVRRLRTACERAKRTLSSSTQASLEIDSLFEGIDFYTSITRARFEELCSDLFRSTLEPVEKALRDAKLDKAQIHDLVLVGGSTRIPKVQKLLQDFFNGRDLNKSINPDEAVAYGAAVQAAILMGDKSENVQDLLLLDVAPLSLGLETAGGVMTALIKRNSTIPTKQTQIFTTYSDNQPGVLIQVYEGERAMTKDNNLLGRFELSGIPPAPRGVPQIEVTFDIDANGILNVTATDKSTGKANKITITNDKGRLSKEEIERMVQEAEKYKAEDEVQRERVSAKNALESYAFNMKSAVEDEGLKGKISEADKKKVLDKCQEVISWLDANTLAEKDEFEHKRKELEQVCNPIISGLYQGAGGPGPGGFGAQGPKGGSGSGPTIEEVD
Chain of Peroxisome proliferator-activated receptor gamma/Nuclear receptor corepressor 2 (P37231 whole entry): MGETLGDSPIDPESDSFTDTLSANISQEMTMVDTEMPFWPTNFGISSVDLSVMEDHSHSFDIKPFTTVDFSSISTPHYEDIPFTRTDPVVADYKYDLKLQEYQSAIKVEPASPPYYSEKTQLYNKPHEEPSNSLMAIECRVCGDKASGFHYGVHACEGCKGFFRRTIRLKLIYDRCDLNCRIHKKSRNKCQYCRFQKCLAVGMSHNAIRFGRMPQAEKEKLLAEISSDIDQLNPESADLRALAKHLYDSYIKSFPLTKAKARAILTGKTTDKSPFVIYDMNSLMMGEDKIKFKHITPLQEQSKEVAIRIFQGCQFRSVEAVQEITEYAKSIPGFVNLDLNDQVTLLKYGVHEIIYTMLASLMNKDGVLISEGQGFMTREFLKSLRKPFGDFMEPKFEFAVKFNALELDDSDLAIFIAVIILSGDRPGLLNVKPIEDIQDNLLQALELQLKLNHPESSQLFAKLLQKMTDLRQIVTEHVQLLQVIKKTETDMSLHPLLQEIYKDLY
Chain of Peroxisome proliferator-activated receptor gamma/Nuclear receptor corepressor 2 (Q9Y618 whole entry): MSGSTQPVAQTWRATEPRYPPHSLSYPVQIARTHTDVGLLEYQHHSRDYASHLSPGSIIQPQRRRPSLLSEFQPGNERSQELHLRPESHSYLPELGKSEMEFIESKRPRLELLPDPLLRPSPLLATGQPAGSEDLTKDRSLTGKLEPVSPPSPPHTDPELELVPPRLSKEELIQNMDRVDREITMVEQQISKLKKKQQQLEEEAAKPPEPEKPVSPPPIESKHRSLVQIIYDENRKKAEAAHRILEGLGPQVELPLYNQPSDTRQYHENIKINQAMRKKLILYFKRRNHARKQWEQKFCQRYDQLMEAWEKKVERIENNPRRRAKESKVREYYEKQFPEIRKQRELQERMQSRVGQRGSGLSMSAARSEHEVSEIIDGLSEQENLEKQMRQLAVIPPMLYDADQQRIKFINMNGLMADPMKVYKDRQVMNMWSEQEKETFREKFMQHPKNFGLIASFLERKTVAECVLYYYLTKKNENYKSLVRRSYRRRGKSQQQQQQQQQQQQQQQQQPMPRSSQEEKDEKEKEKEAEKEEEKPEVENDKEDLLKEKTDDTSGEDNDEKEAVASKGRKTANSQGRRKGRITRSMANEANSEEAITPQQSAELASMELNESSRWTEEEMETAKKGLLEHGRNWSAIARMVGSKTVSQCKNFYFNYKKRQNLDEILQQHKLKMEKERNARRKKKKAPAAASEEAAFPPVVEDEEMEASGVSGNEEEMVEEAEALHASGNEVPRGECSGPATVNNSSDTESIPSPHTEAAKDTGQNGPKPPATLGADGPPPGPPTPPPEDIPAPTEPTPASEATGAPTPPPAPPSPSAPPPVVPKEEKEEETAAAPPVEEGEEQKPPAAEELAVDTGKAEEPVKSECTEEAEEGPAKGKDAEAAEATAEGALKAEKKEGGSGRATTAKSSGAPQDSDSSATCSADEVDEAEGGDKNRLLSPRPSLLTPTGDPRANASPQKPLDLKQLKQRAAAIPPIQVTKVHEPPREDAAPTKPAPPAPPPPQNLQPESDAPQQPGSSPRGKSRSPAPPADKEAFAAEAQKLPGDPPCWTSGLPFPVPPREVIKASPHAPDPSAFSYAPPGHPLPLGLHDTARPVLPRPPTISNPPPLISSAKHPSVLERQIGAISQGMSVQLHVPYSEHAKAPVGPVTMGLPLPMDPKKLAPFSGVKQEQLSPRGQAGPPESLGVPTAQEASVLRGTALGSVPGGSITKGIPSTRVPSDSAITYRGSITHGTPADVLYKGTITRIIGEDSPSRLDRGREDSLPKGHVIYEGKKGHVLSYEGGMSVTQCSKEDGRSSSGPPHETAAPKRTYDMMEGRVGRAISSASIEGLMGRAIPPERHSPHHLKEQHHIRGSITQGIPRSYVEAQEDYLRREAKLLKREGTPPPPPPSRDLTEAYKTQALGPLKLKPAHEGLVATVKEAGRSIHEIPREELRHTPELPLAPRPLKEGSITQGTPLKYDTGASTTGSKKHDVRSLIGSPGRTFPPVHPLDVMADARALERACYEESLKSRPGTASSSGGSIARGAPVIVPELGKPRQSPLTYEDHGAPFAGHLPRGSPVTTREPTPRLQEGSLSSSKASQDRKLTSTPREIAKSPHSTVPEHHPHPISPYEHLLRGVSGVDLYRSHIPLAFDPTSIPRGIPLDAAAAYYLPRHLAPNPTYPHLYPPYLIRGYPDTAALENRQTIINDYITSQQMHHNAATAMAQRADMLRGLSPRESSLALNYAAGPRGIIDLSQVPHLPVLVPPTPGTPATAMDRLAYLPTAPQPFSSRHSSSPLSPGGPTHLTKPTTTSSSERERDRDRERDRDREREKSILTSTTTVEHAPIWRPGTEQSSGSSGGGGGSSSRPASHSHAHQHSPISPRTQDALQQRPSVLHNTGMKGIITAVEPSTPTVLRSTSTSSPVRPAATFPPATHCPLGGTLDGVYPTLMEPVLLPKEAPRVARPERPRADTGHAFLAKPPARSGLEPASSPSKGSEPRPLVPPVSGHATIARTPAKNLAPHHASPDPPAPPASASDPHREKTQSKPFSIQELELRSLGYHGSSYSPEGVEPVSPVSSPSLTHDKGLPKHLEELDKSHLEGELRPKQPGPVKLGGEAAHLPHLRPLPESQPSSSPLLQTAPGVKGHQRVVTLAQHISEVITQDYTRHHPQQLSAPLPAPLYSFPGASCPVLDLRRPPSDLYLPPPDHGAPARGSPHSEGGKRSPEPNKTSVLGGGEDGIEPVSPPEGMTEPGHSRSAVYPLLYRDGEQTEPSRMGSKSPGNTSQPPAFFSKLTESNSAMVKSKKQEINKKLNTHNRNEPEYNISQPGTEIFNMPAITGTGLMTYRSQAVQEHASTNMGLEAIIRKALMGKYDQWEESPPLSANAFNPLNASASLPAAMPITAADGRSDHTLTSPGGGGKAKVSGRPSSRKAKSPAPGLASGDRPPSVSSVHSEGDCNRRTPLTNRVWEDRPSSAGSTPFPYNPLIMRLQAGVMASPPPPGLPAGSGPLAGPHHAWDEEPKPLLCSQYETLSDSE

## Cc1cc(C)nc(Sc2nc(C)nc3c2oc2ccccc23)n1
[1]
  EC50: > 50 µM (not active)

## COc1ccccc1NC(=O)CSc1nnc(CCC(=O)Nc2ccccc2F)n1C
[2]
  EC50: > 55.7 µM (not active)
[3]
  EC50: > 55.7 µM (not active)

## Cc1cccc(N=C(S)N(CCN(C)C)Cc2cc3cc(C)cc(C)c3nc2O)c1
[4]
  EC50: 18.1 µM (active)
[5]
  IC50: 6.32 µM (active)
[6]
  IC50: 14.3 µM (not active)
[7]
  EC50: 33.6 µM (active)

## CC1C(c2ccccc2)N(C)C(c2ccccc2)CC1(O)c1ccc(F)cc1 (stereo unspecified)
[8]
  IC50: > 50 µM (not active)
[9]
  EC50: 2.78 µM (active)
[10]
  EC50: > 60 µM (not active)
[11]
  IC50: > 50 µM (not active)
[12]
  CC50: 19.4 µM (active)

## COC(=O)CCCCC1SCC2NC(=O)NC21O (stereo unspecified)
[13]
  IC50: 0.577 µM (active)
[14]
  IC50: 0.139 µM (active)

## Nc1nc2n(n1)C(c1ccco1)CC(c1ccc(Cl)cc1Cl)N2 (stereo unspecified)
[15]
  IC50: > 100 µM (not active)
[16]
  IC50: > 100 µM (not active)

## O=C(NCCc1ccccc1)c1ccc2c(c1)OCCO2
[17]
  AC50: 4.51 µM (active)
[18]
  AC50: > 52 µM (inactive)
[19]
  AC50: 3.07 µM (active)
[20]
  AC50: 0.885 µM (active)
[21]
  AC50: 0.801 µM (active)
[22]
  AC50: 2.31 µM (active)
[23]
  AC50: 2.05 µM (active)
[24]
  IC50: > 39.8 µM (not active)
[25]
  IC50: > 80 µM (inactive)
[26]
  AC50: 2.16 µM (active)
